Values after ≈ are worked out from the molar mass of the structure shown. Where two headings read alike, the source gives them in different places.
How the values were obtained:
K. pneumoniae LMG20218 = assay: microbe, parasite or virus in culture; format: cell-based, Klebsiella pneumoniae; settings: for MIC: Klebsiella pneumoniae
Outline: (§1)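 MIC = lowest concentration with no visible growth. Duplicate microdilution in MHB, 1/2 serial dilutions, 5*10^5 CFU/mL final inoculum; inoculum checked by plating a diluted growth-control well.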

A. baumannii LMG01041 = assay: microbe, parasite or virus in culture; format: cell-based, Acinetobacter baumannii; settings: for MIC: Acinetobacter baumannii
Outline: as §1

E. aerogenes LMG 02094 = assay: microbe, parasite or virus in culture; format: cell-based, Enterobacter aerogenes; settings: for MIC: Klebsiella aerogenes
Outline: as §1

E. coli LMG15862 = assay: microbe, parasite or virus in culture; format: cell-based, Escherichia coli; settings: for MIC: Escherichia coli
Outline: as §1

HEK293 cells = assay: Cell viability (ATP levels, CellTiter-Glo); settings: HEK293 cells
Protocol: ATP levels were measured by adding 50 μL of CellTiter-Glo reagent to each well and after 5 minutes of incubation luminescence was measured with SpectraMax i3.
96-well plates were seeded with HEK293 cells at concentration of 30,000 cells per well in 100 μL of DMEM growth media supplemented with 1% NEAA and 10% FBS. Border wells were filled with 100 μL of sterile PBS. The next day compounds were added to cells. Compounds were first 2× diluted in 96-well V-bottom plate in PBS. After that compounds were mixed with media in 96-deep-well plate for final concentrations. Growth media from 3 plates was aspirated and replaced with 100 μL of prepared compounds. Compounds were tested in duplicate. ATP levels were measured by adding 50 μL of CellTiter-Glo reagent to each well and after 5 minutes of incubation luminescence was measured with SpectraMax i3. […] The potential effects were then calculated and presented as IC50 values (μg/mL).

P. aeruginosa LMG 6395 = assay: microbe, parasite or virus in culture; format: cell-based, Pseudomonas aeruginosa; settings: for MIC: Pseudomonas aeruginosa
Outline: as §1

Gram-negative pathogens = format: cell-based; settings: alone; over the 5 Gram-negative pathogens
Protocol: Escherichia coli, Klebsiella pneumoniae, Pseudomonas aeruginosa, Acinetobacter baumannii, Enterobacter aerogenes were grown in Luria-Bertani (LB) broth shaken (200 rpm) or on LB agar at 37° C. […] MICs tests were performed in duplicate by a liquid growth inhibition microdilution assays in sterilized polypropylene microtiter plates according to Wiegand and […] [27]. […] The suspension was diluted in a ratio of 1:100 using Mueller Hinton Broth (MHB) and the final inoculum is 5*10^5 CFU/mL. […] The antimicrobials were diluted serially by 1/2 one by one and 50 uL diluted bacterial suspension were added to each well to make the final volume to be 100 uL. Growth control was accomplished by remove 10 uL from well 11 and dilute 1000 times to plate 1/10 suspension on the solid medium. […] The number of colonies on the control agar plate should be around 50 to ensure the concentration of the inoculum and the effectiveness of the experiment. The lowest concentration of the antimicrobials that inhibits visible growth of the indicator is identified as MIC.

[1] = test system: Klebsiella pneumoniae ATCC BAA-2524; assay: microbe, parasite or virus in culture; settings: for MIC: Klebsiella pneumoniae
Protocol: (§2) Testing was performed according to CLSI (Clinical Laboratory Standards Institute) guidelines. Read out of the study was determination of MIC—minimal inhibitory concentration expressed in μg/mL.
(§3) Out of these PBS solutions, 76.8 μL was transferred to 1423.2 μL of MH media in deep well for testing compound alone. […] Out of these working solutions 100 μL were transferred to wells in the third column of 96-well assay plates. Assay plates were previously filled with 50 μL of MH media in all wells except for the wells in the third column.
(§4) Microorganisms used were all revived from skim milk storage at −70° C. by plating them on MH agar plates. The following day a single colony of each microorganism was again streaked on fresh agar plates. The next day, using direct colony suspension method, broth solutions that achieve turbidity equivalent to 0.5 McFarland standard for each microorganism were prepared. […] Out of these suspensions, actual inoculums were prepared by diluting them 100× with MH media giving final microorganism count of 2-8×10^5 CFU/mL. For each strain of microorganisms, 20 mL of these inoculum solutions were prepared. From the second to the twelfth column of 96-well plates, 50 μL of these solutions were transferred per well. To the first column, 50 μL per well of pure growth media was added. In this manner the first column was used as sterility control of media used, the second column was used as control of microorganism's growth and the rest of the plate was used for MIC determination. All plates were incubated for 16-24 h at 37° C.
(§5) MIC value was determined by visual inspection of bacterial growth within 96-well plates. The first column in which there was no visible growth of bacteria was determined as MIC value for peptide or combination tested in that particular row.

[2] = test system: Pseudomonas aeruginosa ATCC BAA-2108; assay: microbe, parasite or virus in culture; settings: for MIC: Pseudomonas aeruginosa
Protocol: as §2, §3, §4, §5

[3] = test system: Acinetobacter baumannii ATCC BAA-1605; assay: microbe, parasite or virus in culture; settings: for MIC: Acinetobacter baumannii
Protocol: as §2, §3, §4, §5

[4] = test system: Escherichia coli B1927, clinical isolate; assay: microbe, parasite or virus in culture; settings: for MIC: Escherichia coli
Protocol: as §2, §3, §4, §5

[5] = test system: Acinetobacter baumannii B2026, clinical isolate; assay: microbe, parasite or virus in culture; settings: for MIC: Acinetobacter baumannii
Protocol: as §2, §3, §4, §5

[6] = test system: Escherichia coli ATCC BAA-2452; assay: microbe, parasite or virus in culture; settings: for MIC: Escherichia coli
Protocol: as §2, §3, §4, §5

[7] = test system: Klebsiella pneumoniae B1945, clinical isolate; assay: microbe, parasite or virus in culture; settings: for MIC: Klebsiella pneumoniae
Protocol: as §2, §3, §4, §5

[8] = test system: Pseudomonas aeruginosa B1954, clinical isolate; assay: microbe, parasite or virus in culture; settings: for MIC: Pseudomonas aeruginosa
Protocol: as §2, §3, §4, §5

[9] = test system: human red blood cells (HRBc); assay: Hemolytic test
Protocol: Fresh human red blood cells (HRBc) were used for the hemolytic tests. After incubation with different concentrations of test compounds at 37° C. for 1 hour, the absorbance of the supernatant were measured.

**Q.** Which MIC value (K. pneumoniae LMG20218; alone, K. pneumoniae LMG20218) does the source give for `CC[C@@H](C)[C@@H](NC(=O)[C@@H](CCCNC(=N)N)NC(=O)[C@@H](CCCNC(=N)N)NC(=O)[C@@H](Cc1ccccc1)NC(=O)[C@@H](CC(C)C)NC(=O)[C@@H](CCCNC(=N)N)NC(=O)[C@H](N)CCCNC(=N)N)C(=O)N[C@H](CC(C)C)C(=O)N[C@H](CCCNC(=N)N)C(=O)N[C@H](Cc1c[nH]c2ccccc12)C(=O)N[C@H](CC(C)C)C(N)=O` [GNP-D6] here?
**A.** 2 µM (≈ 3.17 µg/mL)

**Q.** And the MIC value (A. baumannii LMG01041; alone, A. baumannii LMG01041)?
**A.** 2 µM (≈ 3.17 µg/mL)

**Q.** And the MIC value (E. aerogenes LMG 02094; alone, E. aerogenes LMG 02094)?
**A.** 2 µM (≈ 3.17 µg/mL)

**Q.** What about the MIC value (E. coli LMG15862; alone, E. coli LMG15862) of the same compound?
**A.** 2 µM (≈ 3.17 µg/mL)

**Q.** What about the IC50 (HEK293 cells; read-out: IC50 (cell viability, ATP levels)) of the same compound?
**A.** 32.9 µM

**Q.** What about the MIC value (P. aeruginosa LMG 6395; alone, P. aeruginosa LMG 6395) of the same compound?
**A.** 2 µM (≈ 3.17 µg/mL)

**Q.** What about the “MIC / concentration needed to inhibit growth” value (Gram-negative pathogens) of the same compound?
**A.** 2 µM (≈ 3.17 µg/mL)

**Q.** And the MIC value ([1]; alone, MDR K. pneumoniae ATCC BAA-2524)?
**A.** 2.53 µM

**Q.** And the MIC value ([2]; alone, MDR P. aeruginosa ATCC BAA-2108)?
**A.** 5.05 µM

**Q.** And the MIC value ([3]; alone, MDR A. baumannii ATCC BAA-1605)?
**A.** 5.05 µM

**Q.** And the MIC value ([4]; alone, MDR E. coli B1927)?
**A.** 1.27 µM

**Q.** And the MIC value ([5]; alone, A. baumannii B2026, colistin resistant)?
**A.** 2.53 µM

**Q.** What about the MIC value ([6]; alone, MDR E. coli ATCC BAA-2452) of the same compound?
**A.** 1.27 µM

**Q.** What about the MIC value ([7]; alone, MDR K. pneumoniae B1945) of the same compound?
**A.** 5.05 µM

**Q.** What about the MIC value ([8]; alone, MDR P. aeruginosa B1954) of the same compound?
**A.** 2.53 µM

**Q.** And the HC50 ([9]; HRBc, 37° C., 1 hour)?
**A.** 168.9 µM

**Q.** What about the “HC50 relative to the working concentration” value ([9]; working concentration 2 μM) of the same compound?
**A.** 80 fold

**Q.** How did the MIC (K. pneumoniae LMG20218; LMG20218, read-out: MIC value) turn out when `CN[C@H](CC(C)C)C(=O)N[C@H]1C(=O)N[C@@H](CC(N)=O)C(=O)N[C@H]2C(=O)N[C@H]3C(=O)N[C@H](C(=O)N[C@H](C(=O)O)c4cc(O)cc(O)c4-c4cc3ccc4O)[C@H](O)c3ccc(c(Cl)c3)Oc3cc2cc(c3O[C@@H]2O[C@H](CO)[C@@H](O)[C@H](O)[C@H]2O[C@H]2C[C@](C)(N)[C@H](O)[C@H](C)O2)Oc2ccc(cc2Cl)[C@H]1O` [Vancomycin, reference compound] was run?
**A.** 128 µM (≈ 186 µg/mL)

**Q.** What about the MIC (K. pneumoniae LMG20218; LMG20218, read-out: MIC value of antimicrobial compounds alone) of the same compound?
**A.** 128 µM (≈ 186 µg/mL)

**Q.** And the MIC (A. baumannii LMG01041; LMG01041, read-out: MIC value)?
**A.** 32 µM (≈ 46.4 µg/mL)

**Q.** What about the MIC (A. baumannii LMG01041; LMG01041, read-out: MIC value of antimicrobial compounds alone) of the same compound?
**A.** 32 µM (≈ 46.4 µg/mL)

**Q.** And the MIC (E. aerogenes LMG 02094; LMG02094, read-out: MIC value)?
**A.** 192 µM (≈ 278 µg/mL)

**Q.** And the MIC (E. aerogenes LMG 02094; LMG02094, read-out: MIC value of antimicrobial compounds alone)?
**A.** 192 µM (≈ 278 µg/mL)

**Q.** And the MIC (E. coli LMG15862; LMG15862, read-out: MIC value)?
**A.** 64 µM (≈ 92.8 µg/mL)

**Q.** What about the MIC (E. coli LMG15862; LMG15862, read-out: MIC value of antimicrobial compounds alone) of the same compound?
**A.** 64 µM (≈ 92.8 µg/mL)

**Q.** What about the “Effect on ATP levels” value (HEK293 cells; at concentrations tested) of the same compound?
**A.** do not affect the ATP levels

**Q.** What about the MIC (P. aeruginosa LMG 6395; LMG6395, read-out: MIC value) of the same compound?
**A.** 128 µM (≈ 186 µg/mL)

**Q.** What about the MIC (P. aeruginosa LMG 6395; LMG6395, read-out: MIC value of antimicrobial compounds alone) of the same compound?
**A.** 128 µM (≈ 186 µg/mL)

**Q.** What about the “MIC / concentration needed to inhibit growth” value (Gram-negative pathogens) of the same compound?
**A.** at least 32 μM

**Q.** What about the MIC ([1]; ATCCBAA2524) of the same compound?
**A.** > 128 µg/mL

**Q.** What about the MIC ([1]; ATCCBAA2524, read-out: MIC value) of the same compound?
**A.** > 88.3 µM

**Q.** And the MIC ([2]; ATCCBAA2108)?
**A.** > 128 µg/mL

**Q.** And the MIC ([2]; ATCCBAA2108, read-out: MIC value)?
**A.** > 88.3 µM

**Q.** What about the MIC ([3]; ATCCBAA1605) of the same compound?
**A.** 64 µg/mL

**Q.** What about the MIC ([3]; ATCCBAA1605, read-out: MIC value) of the same compound?
**A.** 44.2 µM

**Q.** What about the MIC [4] of the same compound?
**A.** 128 µg/mL

**Q.** And the MIC ([4]; read-out: MIC value)?
**A.** 88.3 µM

**Q.** And the MIC [5]?
**A.** 32 µg/mL

**Q.** What about the MIC ([5]; read-out: MIC value) of the same compound?
**A.** 22.1 µM

**Q.** What about the MIC ([6]; ATCCBAA2452) of the same compound?
**A.** > 128 µg/mL

**Q.** What about the MIC ([6]; ATCCBAA2452, read-out: MIC value) of the same compound?
**A.** > 88.3 µM

**Q.** And the MIC [7]?
**A.** > 128 µg/mL

**Q.** What about the MIC ([7]; read-out: MIC value) of the same compound?
**A.** > 88.3 µM

**Q.** And the MIC [8]?
**A.** 128 µg/mL

**Q.** What about the MIC ([8]; read-out: MIC value) of the same compound?
**A.** 88.3 µM

**Q.** What about the “Hemolysis in the HRBc” value ([9]; even at 500 μM) of the same compound?
**A.** did not induce hemolysis

**Q.** And the “HC50 (hemolytic activity)” value ([9]; human red blood cells, 37° C., 1 hour)?
**A.** >500 µM

Reference: patent publication US20200368315A1, “ANTIMICROBIAL PEPTIDES AND ADMIXTURES THEREOF SHOWING ANTIMICROBIAL ACTIVITY AGAINST GRAM-NEGATIVE PATHOGENS” (priority 2017, published 2020)
